Values quoted from earlier work, collected in US8962671B2, “Amino-substituted 3-heteroaroylamino-propionic acid derivatives and their use as pharmaceuticals” (Sanofi, priority 2011, dated 2015).

System: platelet aggregation
Conditions: hypertensive animals; H. Ostrowska et al., J. Cardiovasc. Pharmacol. 45 (2005); cited from earlier work

Structure (SMILES): CC[C@@H](C)[C@@H](O)[C@H](C)C(=O)[C@H](C)/C=C(\C)C[C@H](C)[C@@H]1OC(=O)[C@H]1CC [ebelactone B]
- platelet aggregation: suppresses platelet aggregation
